Measurements taken from patent US9695192B2, “Fused heterocyclic compounds as ion channel modulators” (GILEAD SCIENCES, INC., priority 2011, dated 2017).
Where two headings read alike, the source gives them in different places.

Biological target: hNav1.5 Peak INa (Homo sapiens, UniProt Q14524)
Experiment: Peak INa screening assay (tonic block and use-dependent block)
Type: cell-based
Protocol: The assay uses an HEK293 (human embryonic kidney) cell line heterologously expressing the wild-type human cardiac sodium channel, hNav1.5, purchased from Millipore (Billerica, Mass.). No beta subunits were coexpressed with the Na channel alpha subunit. Cells are maintained with standard tissue culture procedures and stable channel expression is maintained with 400 μg/mL Geneticin in the culture medium. […] Experiments are carried out at 23-25° C. […] Currents through open sodium channels are automatically recorded and stored in the Sophion Bioscience Oracle database (Sophion Bioscience, Copenhagen, Denmark). Analysis is performed using QPatch Assay and database software and data are compiled in Excel. Compound stocks are routinely made by the Gilead Sample Bank in plastic vials to 10 mM in dimethyl sulfoxide (DMSO). […] Stocks are sonicated as necessary. […] Compounds are diluted in extracellular solution to 1 μM in glass vials and then transferred to glass well plates before robotic addition to the cells. […] Good separation between the concentrations of test compound to reduce late and peak INa is beneficial to enable separation of the desired effect to reduce late INa-induced electrical and mechanical dysfunction from the undesired effect to reduce peak INa, which can lead to slowing or block of conduction of electrical excitation in the heart. It is contemplated that the compounds of Formula I avoid significant block of peak INa. […] Analysis of peak INa generally requires correction for rundown before determining the % block of peak current by the tested compound. […] Use-dependent block refers to the accumulation of block with increased frequency of channel activation. […] It is therefore expected that reduction of peak INa by compounds of this disclosure will be greater at high heart rates, such as those during tachyarrhythmias, than at normal heart rates. […] The intracellular solution used for the Peak INa assay is the same as outlined for the Late INa assay (see above). […] After establishing the whole cell recording configuration, channels were stimulated to open with low frequency stimulation (0.1 Hz) for 7 minutes so that the recording can be monitored and the extent to which the recording has stabilized can be assessed. […] Both TB and UDB were analyzed by incorporating rundown correction for the peak INa and UDB as calculated by compensating for the small use-dependent effect of the stimulation protocol on peak INa in the absence of compound.

Chain of hNav1.5 Peak INa (Q14524 whole entry): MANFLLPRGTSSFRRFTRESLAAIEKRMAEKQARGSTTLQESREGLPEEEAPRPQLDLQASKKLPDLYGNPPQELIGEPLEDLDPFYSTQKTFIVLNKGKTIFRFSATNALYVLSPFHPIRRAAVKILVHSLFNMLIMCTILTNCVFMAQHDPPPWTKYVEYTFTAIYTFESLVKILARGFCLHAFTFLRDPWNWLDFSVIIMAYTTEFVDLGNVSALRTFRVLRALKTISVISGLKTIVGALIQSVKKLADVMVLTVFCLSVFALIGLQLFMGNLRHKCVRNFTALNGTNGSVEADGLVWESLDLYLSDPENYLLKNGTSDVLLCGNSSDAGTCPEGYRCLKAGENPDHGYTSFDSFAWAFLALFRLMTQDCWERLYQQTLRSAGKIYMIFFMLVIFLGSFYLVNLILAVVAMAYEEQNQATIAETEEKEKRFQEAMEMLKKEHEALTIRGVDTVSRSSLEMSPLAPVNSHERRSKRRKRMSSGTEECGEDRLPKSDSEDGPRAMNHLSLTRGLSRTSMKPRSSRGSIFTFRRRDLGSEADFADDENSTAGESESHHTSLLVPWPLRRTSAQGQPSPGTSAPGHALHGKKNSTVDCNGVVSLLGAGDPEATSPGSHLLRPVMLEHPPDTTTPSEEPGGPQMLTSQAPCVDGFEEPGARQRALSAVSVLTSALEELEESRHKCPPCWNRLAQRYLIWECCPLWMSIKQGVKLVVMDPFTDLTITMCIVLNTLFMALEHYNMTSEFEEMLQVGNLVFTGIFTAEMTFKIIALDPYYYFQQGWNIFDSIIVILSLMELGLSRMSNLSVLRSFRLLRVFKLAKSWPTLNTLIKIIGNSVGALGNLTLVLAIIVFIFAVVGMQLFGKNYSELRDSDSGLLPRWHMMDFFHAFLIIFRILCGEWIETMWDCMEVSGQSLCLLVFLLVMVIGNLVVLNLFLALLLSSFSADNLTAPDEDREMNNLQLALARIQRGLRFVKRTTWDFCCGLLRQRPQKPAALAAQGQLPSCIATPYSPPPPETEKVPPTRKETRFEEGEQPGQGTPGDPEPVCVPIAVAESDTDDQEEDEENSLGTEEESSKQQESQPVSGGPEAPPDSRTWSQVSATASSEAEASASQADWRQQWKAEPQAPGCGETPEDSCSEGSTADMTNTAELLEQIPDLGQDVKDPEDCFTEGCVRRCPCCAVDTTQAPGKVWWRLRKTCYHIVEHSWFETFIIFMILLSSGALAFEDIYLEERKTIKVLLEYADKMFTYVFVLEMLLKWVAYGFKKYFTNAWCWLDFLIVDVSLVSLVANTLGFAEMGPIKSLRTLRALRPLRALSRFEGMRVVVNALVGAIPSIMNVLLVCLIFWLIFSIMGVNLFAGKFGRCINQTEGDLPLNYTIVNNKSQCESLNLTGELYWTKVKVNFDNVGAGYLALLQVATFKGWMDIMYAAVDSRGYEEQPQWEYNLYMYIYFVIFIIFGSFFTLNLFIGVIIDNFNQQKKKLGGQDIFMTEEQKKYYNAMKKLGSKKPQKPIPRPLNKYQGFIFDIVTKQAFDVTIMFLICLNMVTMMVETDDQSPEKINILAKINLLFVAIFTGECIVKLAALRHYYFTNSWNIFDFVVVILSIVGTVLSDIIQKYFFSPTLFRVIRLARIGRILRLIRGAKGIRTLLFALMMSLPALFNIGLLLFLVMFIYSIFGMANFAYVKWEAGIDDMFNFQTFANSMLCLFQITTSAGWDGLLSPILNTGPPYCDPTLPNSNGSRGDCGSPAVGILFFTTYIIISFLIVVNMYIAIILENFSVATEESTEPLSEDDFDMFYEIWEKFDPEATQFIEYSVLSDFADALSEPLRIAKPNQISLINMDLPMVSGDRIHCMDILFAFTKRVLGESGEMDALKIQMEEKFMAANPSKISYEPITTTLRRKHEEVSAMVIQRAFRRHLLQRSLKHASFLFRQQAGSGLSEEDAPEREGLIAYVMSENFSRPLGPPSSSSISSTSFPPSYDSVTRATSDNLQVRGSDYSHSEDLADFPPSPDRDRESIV

## FC(F)(F)c1ccc(-c2ccc3c(c2)C(NCc2ccccc2)=NCCO3)cc1 [II-2, N-benzyl-7-(4-(trifluoromethyl)phenyl)-2,3-dihydrobenzo[f][1,4]oxazepin-5-amine]
At 1 μM, 3 Hz stimulation, holding potential −100 mV, read-out: Peak UDB (use-dependent block of peak INa) % Inhibition
  inhibition at 1 µM: 57%
read-out: Peak TB (tonic block of peak INa) % Inhibition
  inhibition at 1 µM: 27%
